According to patent publication US20210137913A1, “THERAPEUTIC AGENT FOR ASPIRATION PNEUMONIA, LUNG SUPPURATION, OR LUNG ABSCESS” (KYORIN PHARMACEUTICAL CO., LTD., priority 2017, published 2021):

Legend:
[1] = tested on: anaerobic bacteria; details: Non Patent Literature 2; cited from earlier work
[2] = tested on: genus Actinomyces A. odontolyticus; test: Microbiological efficacy according to the causative bacteria (Aspiration pneumonia); format: in vivo; details: case number 1
Experimental: (§1) The investigational new drug A was administered intravenously for 7 to 14 days to 13 subjects suspected of having aspiration pneumonia meeting the following criteria.
(§2) The patient presents with symptoms and inflammation that are characteristic of aspiration pneumonia. On the first day of the start of administration, two doses of investigational new drug A (300 mg/day) were used, and on the second day of administration, one dose of investigational new drug A (150 mg/day) was used, and then the same dose (150 mg/day) was maintained. The administration of the injection was performed intravenously over about 1 hour per dose.
(§3) Samples for microbiological evaluation were collected before starting an appropriate alternative antibacterial treatment.

[3] = tested on: genus Bacteroides Bacteroides sp.; test: as above; format: in vivo; details: case number 2
Experimental: as §1, §2, §3

[4] = tested on: genus Veillonella Veillonella sp.; test: as above; format: in vivo; details: case number 7
Experimental: as §1, §2, §3

[5] = tested on: genus Prevotella P. intermedia; test: as above; format: in vivo; details: case number 1
Experimental: as §1, §2, §3

[6] = tested on: genus Prevotella Prevotella sp.; test: as above; format: in vivo; details: case number 6
Experimental: as §1, §2, §3

[7] = tested on: genus Prevotella P. buccae; test: as above; format: in vivo; details: case number 1
Experimental: as §1, §2, §3

[8] = tested on: Anaerobe; test: Microbiological efficacy according to the causative bacteria (Lung suppuration/lung abscess); format: in vivo
Experimental: (§4) The investigational new drug A was administered intravenously for 7 to 14 days to 11 subjects suspected of having lung suppuration or lung abscess meeting the following criteria.
(§5) On the first day of the start of administration, two doses of investigational new drug A (300 mg/day) were used, and on the second day of administration, one dose of investigational new drug A (150 mg/day) was used, and then the same dose (150 mg/day) was maintained. The administration of the injection was performed intravenously over about 1 hour per dose.
as §3
(§6) Table 4 and Table 5 show the microbiological efficacy of Test Examples 1 and 2 according to the causative bacteria.

[9] = tested on: genus Parvimonas P. micra; test: as above; format: in vivo; details: case number 2
Experimental: as §4, §5, §3, §6

[10] = tested on: genus Bacteroide B. fragilis; test: as above; format: in vivo; details: case number 1
Experimental: as §4, §5, §3

[11] = tested on: genus Veillonella Veillonella sp.; test: as above; format: in vivo; details: case number 2
Experimental: as §4, §5, §3

[12] = tested on: genus Prevotella P. intermedia; test: as above; format: in vivo; details: case number 1
Experimental: as §4, §5, §3

[13] = tested on: genus Fusobacterium F. nucleatum; test: as above; format: in vivo; details: case number 4
Experimental: as §4, §5, §3

[14] = tested on: genus Prevotella Prevotella sp.; test: as above; format: in vivo; details: case number 1
Experimental: as §4, §5, §3

[15] = tested on: genus Fusobacterium F. necrophorum; test: as above; format: in vivo; details: case number 1
Experimental: as §4, §5, §3

[16] = tested on: genus Porphyromonas P. gingivalis; test: as above; format: in vivo; details: case number 1
Experimental: as §4, §5, §3

[17] = tested on: genus Prevotella P. oralis; test: as above; format: in vivo; details: case number 1
Experimental: as §4, §5, §3

[18] = tested on: genus Prevotella P. melaninogenica; test: as above; format: in vivo; details: case number 1
Experimental: as §4, §5, §3

[19] = tested on: genus Leptotrichia Leptotrichia buccalis; test: as above; format: in vivo; details: case number 1
Experimental: as §4, §5, §3

[20] = tested on: Anaerobe; test: Microbiological efficacy according to the causative bacteria (Aspiration pneumonia); format: in vivo
Experimental: as §1, §2, §3, §6

[21] = tested on: genus Parvimonas P. micra; test: as above; format: in vivo; details: case number 1
Experimental: as §1, §2, §3, §6

[22] = tested on: subjects suspected of having aspiration pneumonia; test: Test Example 1: clinical efficacy in aspiration pneumonia; format: in vivo, human
Experimental: as §1
A clear infiltrative shadow appearing acutely on chest X-rays or CT images taken within 48 hours before the start of administration at the age of 16 years or older, is observed.
Confirmation of clear aspiration, choking or dysphagia, has a disease or history of disease with potential dysphagia.
as §2
(§7) The clinical efficacy of Test Examples 1 and 2 were determined by setting the following criteria, based on the criteria for clinical efficacy of pneumonia described in Clinical evaluation method of new antibacterial drugs in respiratory infections (2nd edition), Japanese Journal of Chemotherapy. 2012; 60(1): 30-45. 9). The primary endpoint was the efficacy rate at the end of administration or discontinuation of investigational new drug A.
(§8) The end of administration herein means the evaluation date on the day after the administration of the investigational new drug A is completed. Moreover, the time of discontinuation means the date on which the evaluation was performed within 3 days from the last administration date or the discontinuation judgment date of the investigational new drug A. Furthermore, “the end of administration or the time of discontinuation” is expressed as End of Treatment (EOT). In addition, CRP is an abbreviation for C-reactive protein, and is one of the acute phase reactants produced in a short time in response to various inflammations. It is a useful index for the observation of therapeutic effects since it increases in a few hours in bacterial infections such as pneumonia and decreases rapidly as the inflammation subsides.
(§9) “Early therapeutic effect” was defined as a case in which significant improvement is observed 3 days after administration (regardless of whether administration was completed or continued after 4 days).
as §3
(§10) In addition, if the discontinuation date is the start date of administration (day 0) or the second day of administration (day 1), the determination of early drug efficacy was regarded as unnecessary. In the case of the third day of administration (day 2) or later, it was determined using the test results at the time of discontinuation.
(§11) When the treatment was discontinued after the next day after the end of the administration, the clinical efficacy at the end of the administration was determined, and the determination of the clinical efficacy at the time of discontinuation was not required. In addition, it was judged as “Ineffective” when the treatment was discontinued or when it was changed to an alternative antibacterial treatment after the end of administration of the investigational new drug. […] When changing to an alternative antibacterial treatment, in principle, prescribed tests, examinations and judgments at the end of treatment were made before the change.
(§12) The efficacy rate is the value obtained by the following formula.
(§13) Efficacy rate=(number of subjects rated as “Effective”[…]number of subjects rated as “Effective” or “Ineffective”)×100(%)

[23] = tested on: subjects suspected of having lung suppuration or lung abscess; test: Test Example 2: clinical efficacy in lung suppuration or lung abscess; format: in vivo, human
Experimental: as §4
On chest X-rays or CT images taken within 48 hours before the start of administration at the age of 16 years or older, a massive shadow or a shadow with cavities inside (nodular shadow, mass shadow) is observed. Regardless of the presence of a niveau due to pus accumulation.
The patient presents with symptoms and inflammation that are characteristic of lung suppuration or lung abscess.
as §5, §7, §8, §9, §3, §10, §11, §12, §13

[24] = lung suppuration/lung abscess, Anaerobe total, case number 16
[25] = aspiration pneumonia, Anaerobe total, case number 19
[26] = Test Example 1, aspiration pneumonia, 3 days after administration, number of subjects
[27] = Test Example 1, aspiration pneumonia, EOT, number of subjects
[28] = conclusion from Table 2 and Table 3
[29] = Test Example 2, lung suppuration or lung abscess, 3 days after administration, number of subjects
[30] = Test Example 2, lung suppuration or lung abscess, EOT, number of subjects

SMILES: O=C(O)c1cn(C2CC2)c2cc(N3CCNCC3)c(F)cc2c1=O [ciprofloxacin]
- antibacterial activity against anaerobic bacteria (in words) [1]: insufficient antibacterial activity

SMILES: COc1c(N2C[C@H](CNC3CC3)[C@H](F)C2)c(F)cc2c(=O)c(C(=O)O)cn(CCF)c12 [investigational new drug A, 7-[(3S,4S)-3-{(cyclopropylamino)methyl}-4-fluoropyrrolidin-1-yl]-6-fluoro-1-(2-fluoroethyl)-8-methoxy-4-oxo-1,4-dihydroquinoline-3-carboxylic acid]
- Result: Eradicated [2]: 1
- Result: Persisted [2]: 0
- Result: Eradicated [3]: 2
- Result: Persisted [3]: 0
- Result: Eradicated [4]: 5
- Result: Persisted [4]: 2
- Result: Eradicated [5]: 1
- Result: Persisted [5]: 0
- Result: Eradicated [6]: 6
- Result: Persisted [6]: 0
- Result: Eradicated [7]: 1
- Result: Persisted [7]: 0
- antibacterial effect on the causative bacteria of lung suppuration or lung abscess (in words) ([8]; conclusion from Table 5): high antibacterial effect
- Result: Eradicated [8, 24]: 15
- Result: Persisted [8, 24]: 1
- Result: Eradicated [9]: 2
- Result: Persisted [9]: 0
- Result: Eradicated [10]: 1
- Result: Persisted [10]: 0
- Result: Eradicated [11]: 2
- Result: Persisted [11]: 0
- Result: Eradicated [12]: 0
- Result: Persisted [12]: 1
- Result: Eradicated [13]: 4
- Result: Persisted [13]: 0
- Result: Eradicated [14]: 1
- Result: Persisted [14]: 0
- Result: Eradicated [15]: 1
- Result: Persisted [15]: 0
- Result: Eradicated [16]: 1
- Result: Persisted [16]: 0
- Result: Eradicated [17]: 1
- Result: Persisted [17]: 0
- Result: Eradicated [18]: 1
- Result: Persisted [18]: 0
- Result: Eradicated [19]: 1
- Result: Persisted [19]: 0
- Result: Eradicated [20, 25]: 17
- Result: Persisted [20, 25]: 2
- antibacterial effect on the causative bacteria of aspiration pneumonia (in words) ([20]; conclusion from Table 4): high antibacterial effect
- Result: Eradicated [21]: 1
- Result: Persisted [21]: 0
- Early drug efficacy evaluation, Clinical efficacy: Effective ([22]; Test Example 1, aspiration pneumonia, 13 subjects, i.v. 300 mg day 1 then 150 mg/day, 3 days after administration, number of subjects): 12
- Early drug efficacy evaluation: Efficacy rate ([22]; Test Example 1, aspiration pneumonia, 3 days after administration): 92%
- Early drug efficacy evaluation, Clinical efficacy: Ineffective [22, 26]: 1
- Early drug efficacy evaluation, Clinical efficacy: Undeterminable [22, 26]: 0
- End of Treatment: Efficacy rate ([22]; Test Example 1, aspiration pneumonia, EOT): 100%
- End of Treatment: Efficacy rate ([22]; Test Example 1, aspiration pneumonia, EOT, listed as 7-[(3S,4S)-3-{(cyclopropylamino)methyl}-4-fluoropyrrolidin-1-yl]-6-fluoro-1-(2-f)): 100%
- End of Treatment, Clinical efficacy: Ineffective [22, 27]: 0
- End of Treatment, Clinical efficacy: Undeterminable [22, 27]: 1
- End of Treatment, Clinical efficacy: Effective ([22]; Test Example 1, aspiration pneumonia, end of administration or discontinuation (EOT), number of subjects): 12
- therapeutic effect on aspiration pneumonia (in words) [22, 28]: high therapeutic effect
- Early drug efficacy evaluation, Clinical efficacy: Effective ([23]; Test Example 2, lung suppuration or lung abscess, 11 subjects, i.v. 300 mg day 1 then 150 mg/day, 3 days after administration, number of subjects): 9
- Early drug efficacy evaluation: Efficacy rate ([23]; Test Example 2, lung suppuration or lung abscess, 3 days after administration): 82%
- Early drug efficacy evaluation, Clinical efficacy: Ineffective [23, 29]: 2
- Early drug efficacy evaluation, Clinical efficacy: Undeterminable [23, 29]: 0
- End of Treatment: Efficacy rate ([23]; Test Example 2, lung suppuration or lung abscess, EOT): 91%
- End of Treatment: Efficacy rate ([23]; Test Example 2, lung suppuration or lung abscess, EOT, listed as 7-[(3S,4S)-3-{(cyclopropylamino)methyl}-4-fluoropyrrolidin-1-yl]-6-fluoro-1-(2-f)): 91%
- End of Treatment, Clinical efficacy: Effective [23, 30]: 10
- End of Treatment, Clinical efficacy: Ineffective [23, 30]: 1
- End of Treatment, Clinical efficacy: Undeterminable [23, 30]: 0
- therapeutic effect on lung suppuration or lung abscess (in words) [23, 28]: high therapeutic effect

SMILES: C[C@H]1COc2c(C3(N)CC3)c(F)cc3c(=O)c(C(=O)O)cn1c23 [pazufloxacin]
- antibacterial activity against anaerobic bacteria (in words) [1]: insufficient antibacterial activity
